According to patent US11702418B2, “SOS1 inhibitors” (priority 2019, dated 2023):
pIC50, pKi: −log10 of the molar value.

Experiments:
[1] = tested on: pERK in LXF289 cells (SOS1 N233Y); test: pERK inhibition in SOS1 N233Y mutant LXF289 cells (Example E); format: cell-based; details: Homo sapiens, LXF-289, LXF289 cell line, 1 hour with compound
Description: (§1) Three cell lines harboring SOS1 N233Y activation mutations, LXF289 (DSMZ, Leibniz Institute, Germany) RL95-2 (ATCC CRL-1671); and OCI AML-5 (DSMZ, Leibniz Institute, Germany) were used in the studies.

[2] = tested on: pERK in OCI AML-5 cells (SOS1 N233Y); test: pERK inhibition in SOS1 N233Y mutant OCI AML-5 cells (Example E); format: cell-based; details: Homo sapiens, OCI AML-5 cell line, 1 hour with compound
Description: as §1

[3] = tested on: pERK in RL95-2 cells (SOS1 N233Y); test: pERK inhibition in SOS1 N233Y mutant RL95-2 cells (Example E); format: cell-based; details: Homo sapiens, RL95-2 cell line, 1 hour with compound
Description: as §1

[4] = target: recombinant human SOS1 polypeptide (amino acids 560-1049) (Homo sapiens (Human), UniProt Q07889); test: biochemical; format: binding; details: HTRF displacement, Cy5 labelled tracer, Morrison equation for competitive binding; read-out: Ki, Inhibition of Labeled Tracer Binding to SOS1
Description: The ability of a compound of Formula (I) to bind to SOS1 was measured using a HTRF displacement assay. […] After a 1-hour incubation at room temperature, the HTRF signal was measured using Clairostar plate reader (BMG Labtech) according to the manufacturer's instructions. Excitation filter EX-TR was used, and emission 1 was detected at 650-610 nm and emission 2 detected at 620-610 nm. The HTRF ratio was calculated using the formula: [emission 1/emission 2]*10000.
Background signals were calculated from well with a 10 μM inhibitor, known to inhibit 100% at that concentration. The background subtracted signals were converted to % binding relative to DMSO controls. Data were analyzed using XLFIT software (IDBS) using a Morrison equation for competitive binding and Ki's were generated compound of Formula (I).

[5] = tested on: pERK in Kasuma-1 (Kasumi) cells (NF-1 mutant); test: pERK inhibition in NF-1 mutant Kasumi cells (Example F); format: cell-based; details: 1 h, read-out: IC50, pERK inhibition
Description: (§2) The formaldehyde was discarded from the plates and 150 μL of ice-cold methanol was added to permeabilize the cells for 10 minutes at −20° C. The methanol was discarded from each of the plates and any liquid remaining in the plate by tapping the plate against paper towels. […] The plates were incubated overnight at 4° C. on a shaker.
(§3) On Assay day 2, the primary antibody solution was removed. […] The secondary antibody solution as removed and each plate was washed with PBST 3× times. Any liquid remaining was discarded and the plate was imaged using the Licor Odyssey machine according to the manufacturer's instruction, using a set focus length at 3 mm and both 800 nm and 700 nm filters. The GAPDH normalized scan values for each well were divided by the average of vehicle wells to get the % of pERK inhibition. The IC50 values were then calculated with the Graph pad Prism software.

pERK in MKN1 cells = test: cells; format: cell-based; details: Homo sapiens, MKN-1, pERK inhibition, In-Cell Western; MKN1 or H358 cells (Table 24 does not say which); 0.5-1 hour incubation; read-out: IC50
Description: The cells were incubated for approximately 0.5-1 hour with the compounds solubilized in DMSO at 37° C. Cells were immediately fixed by adding 50 μL of 4% formaldehyde to all wells in a fume hood and the plates were incubated for 20 minutes at room temperature. The formaldehyde was discarded from the plates and 150 μL of ice-cold methanol was added to permeabilize the cells for 10 minutes at −20° C. The methanol was discarded from each of the plates and any liquid remaining in the plate by tapping the plate against paper towels. […] The plates were incubated overnight at 4° C. on a shaker.
as §3

[6] = tested on: pERK in NCI-H1435 cells (NF-1 mutant); test: pERK inhibition in NF-1 mutant NCI-H1435 cells (Example F); format: cell-based; details: NCI-H1435, 1 h, read-out: IC50, pERK inhibition
Description: as §2, §3

Chain of recombinant human SOS1 polypeptide (amino acids 560-1049) (Q07889 560-1049): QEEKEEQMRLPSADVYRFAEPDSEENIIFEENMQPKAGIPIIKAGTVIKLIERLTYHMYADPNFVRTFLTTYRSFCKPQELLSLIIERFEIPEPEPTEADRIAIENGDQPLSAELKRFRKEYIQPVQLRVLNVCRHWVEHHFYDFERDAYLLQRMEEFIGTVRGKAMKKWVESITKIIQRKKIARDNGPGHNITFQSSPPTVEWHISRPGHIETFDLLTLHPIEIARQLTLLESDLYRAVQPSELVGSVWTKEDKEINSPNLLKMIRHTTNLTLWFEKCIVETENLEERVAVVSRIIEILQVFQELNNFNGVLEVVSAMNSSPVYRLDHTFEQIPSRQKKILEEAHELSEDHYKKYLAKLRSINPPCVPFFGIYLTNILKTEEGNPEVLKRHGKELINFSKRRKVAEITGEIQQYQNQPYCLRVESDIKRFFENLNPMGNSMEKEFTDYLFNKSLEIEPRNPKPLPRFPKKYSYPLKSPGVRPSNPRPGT

Structure (SMILES) | pIC50 [1] | pIC50 [2] | pIC50 [3] | pKi [4] | pIC50 [5] | pIC50 (pERK in MKN1 cells) | pIC50 [6]
Cc1c([C@@H](C)Nc2nnc(C)c3ccc(N4CCn5nccc5C4)cc23)cccc1C(F)(F)F [Example 6-10, (R)-7-(6,7-dihydropyrazolo[1,5-a]pyrazin-5(4H)-yl)-4-methyl-N-(1-(2-methyl-3-(trifluoromethyl)phenyl)ethyl)phthalazin-1-amine] | 6.53 | 6.48 | 6.67 | > 11.00 | 6.04 | 6.57 | 6.27
Cc1c([C@@H](C)Nc2nnc(C)c3ccc(N4CCN(C(=O)C5CC5)CC4)cc23)cccc1C(F)(F)F [Example 6-11, (R)-cyclopropyl(4-(1-methyl-4-((1-(2-methyl-3-(trifluoromethyl)phenyl)ethyl)amino)phthalazin-6-yl)piperazin-1-yl)methanone] | 7.39 | 7.49 | 7.70 | 8.04 | 7.01 | 7.51 | 7.19
